Target: T1, TolC (Escherichia coli, UniProt P02930)
T1 construct: ~54 kDa by SDS-PAGE and MALDI; crystal structure cited as trimer, 471 residues per monomer
Experiment: isothermal titration calorimetry
Assay type: binding
Excerpt: isothermal titration calorimetry on TolC

T1 sequence (P02930 23-493): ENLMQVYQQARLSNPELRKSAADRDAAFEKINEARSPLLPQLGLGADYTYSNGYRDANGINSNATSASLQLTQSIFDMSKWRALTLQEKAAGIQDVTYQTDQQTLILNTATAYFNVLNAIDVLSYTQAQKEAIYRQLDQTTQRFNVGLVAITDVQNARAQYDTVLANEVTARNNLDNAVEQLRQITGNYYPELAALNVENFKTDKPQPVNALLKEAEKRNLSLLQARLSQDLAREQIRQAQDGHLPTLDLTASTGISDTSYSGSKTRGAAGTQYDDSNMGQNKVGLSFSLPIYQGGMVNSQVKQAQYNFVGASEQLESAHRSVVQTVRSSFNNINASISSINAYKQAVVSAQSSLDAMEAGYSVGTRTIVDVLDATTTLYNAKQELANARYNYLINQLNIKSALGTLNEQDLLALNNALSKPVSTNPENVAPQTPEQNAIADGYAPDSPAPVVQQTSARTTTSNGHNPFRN

NC[C@H]1O[C@H](O[C@H]2[C@H](O)[C@@H](O[C@H]3O[C@H](CO)[C@@H](O)[C@H](N)[C@H]3O)[C@H](N)C[C@@H]2N)[C@H](O)[C@@H](O)[C@@H]1O [kanamycin]
Kd: 42.7 µM

Reference: paper PMC8083960, “Kanamycin-Mediated Conformational Dynamics of Escherichia coli Outer Membrane Protein TolC” (Frontiers in Molecular Biosciences, 2021)
